For three compounds, IC50 results are on record in patent publication US8129403B2, “Chemical compounds” (AstraZeneca AB, priority 2005, dated 2012).

As a reminder, the IC50 is the point on the concentration scale where inhibition reaches its midpoint.

This test deals with T1, human Trk A kinase (Homo sapiens, UniProt P04629).
T1 construct: HIS tag; made in house; host or cells: SF9 insect cells
T1 sequence (P04629 442-796): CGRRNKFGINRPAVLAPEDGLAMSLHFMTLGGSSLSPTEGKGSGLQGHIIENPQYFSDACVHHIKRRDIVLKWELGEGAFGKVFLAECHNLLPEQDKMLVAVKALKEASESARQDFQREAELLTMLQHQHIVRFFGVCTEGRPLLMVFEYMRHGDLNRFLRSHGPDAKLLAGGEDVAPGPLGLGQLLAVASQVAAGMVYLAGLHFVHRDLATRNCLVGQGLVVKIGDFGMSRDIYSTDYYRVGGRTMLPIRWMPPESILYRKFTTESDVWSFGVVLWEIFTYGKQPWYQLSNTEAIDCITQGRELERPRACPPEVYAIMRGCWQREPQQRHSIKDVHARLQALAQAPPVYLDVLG
The test is described as follows: Trk A Assay (Alphascreen kinase assay). The note with it: intracellular domain of HIS-tagged human Trk A, 70 μM ATP, PolyEY-biotin substrate, 20 minutes room temperature; read-out: IC50 (μM), Trk inhibitory activity. It counts as biochemical. How it is done:
Trk A kinase activity was measured for its ability to phosphorylate synthetic tyrosine residues within a generic polypeptide substrate using an Amplified Luminescent Proximity Assay (Alphascreen) technology (PerkinElmer, 549 Albany Street, Boston, Mass.).
To measure Trk A kinase activity, the intracellular domain of a HIS-tagged human Trk A kinase (amino acids 442-796 of Trk A, Swiss-Prot Primary Accession Number P04629) was expressed in SF9 cells and purified using standard nickel column chromatography. After incubation of the kinase with a biotinylated substrate and adenosine triphosphate (ATP) for 20 minutes at room temperature, the kinase reaction was stopped by the addition of 30 mM ethylenediaminetetraacetic acid (EDTA). The reaction was performed in 384 well microtitre plates and the reaction products were detected with the addition of strepavidin coated Donor Beads and phosphotyrosine-specific antibodies coated Acceptor Beads using the EnVision Multilabel Plate Reader after an overnight incubation at room temperature.
Turning to `Fc1ccc(CNc2ncc3ncn(-c4cc(C5CC5)[nH]n4)c3n2)cc1` [Example 4, 9-(5-Cyclopropyl-1H-pyrazol-3-yl)-N-(4-fluorobenzyl)-9H-purin-2-amine], the IC50 came to 0.02 µM.
On to `Fc1ccc(CNc2ccc3ncn(-c4cc(C5CC5)[nH]n4)c3c2)cc1` [Example 29, N-(4-Fluorobenzyl)-3-(5-cyclopropyl-1H-pyrazol-3-yl)-3H-benzo[d]imidazol-5-amine], for which the IC50 was 0.015 µM.
With `Fc1ccc(CNc2ccc3ncn(-c4cc(C5CC5)[nH]n4)c3n2)cc1` [Example 14, N-(4-Fluorobenzyl)-3-(5-cyclopropyl-1H-pyrazol-3-yl)-3H-imidazo[4,5-b]pyridin-5-amine], the IC50 stood at 0.022 µM.
